Test results taken from ChEMBL document CHEMBL1201862, “PubChem BioAssay data set” (2004).
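Results reflect a 48-hour exposure of cells in 96-well plates to compound at five concentrations. GI50: concentration for 50% inhibition of growth.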 Active and inactive are the calls of the source. No stated cut-off is given here; in the data, active = GI50 up to about 1.1 µM and inactive = higher.

Experiments:
Test in all cases: growth of human tumour cells (NCI), 48 h
[1] = tested on: COLO 205
[2] = tested on: UACC-62
[3] = tested on: UO-31
[4] = tested on: HOP-62
[5] = tested on: RPMI-8226
[6] = tested on: IGROV-1
[7] = tested on: OVCAR-3
[8] = tested on: OVCAR-8
[9] = tested on: M14
[10] = tested on: UACC-257
[11] = tested on: SK-MEL-5
[12] = tested on: EKVX
[13] = tested on: SNB-75
[14] = tested on: CAKI-1
[15] = tested on: NCI-H460
[16] = tested on: DLD-1
[17] = tested on: MOLT-4
[18] = tested on: RXF 393
[19] = tested on: DU-145
[20] = tested on: MDA-MB-435

Row | SMILES | GI50 [1] | GI50 [2] | GI50 [3] | GI50 [4] | GI50 [5] | GI50 [6] | GI50 [7] | GI50 [8] | GI50 [9] | GI50 [10] | GI50 [11] | GI50 [12] | GI50 [13] | GI50 [14] | GI50 [15] | GI50 [16] | GI50 [17] | GI50 [18] | GI50 [19] | GI50 [20]
1 | CN(C(=O)C12C3C4C1C1C2C3C41I)C(C)(C)C (stereo not drawn) | > 87.1 µM (inactive) | > 83 µM (inactive) | > 67.1 µM (inactive) | > 100 µM (inactive) | > 100 µM (inactive) | > 90.8 µM (inactive) | 70.1 µM (inactive) | > 100 µM (inactive) | > 100 µM (inactive) | > 88.5 µM (inactive) | > 63.1 µM (inactive) | 64.9 µM (inactive) | > 65.6 µM (inactive) | > 100 µM (inactive) | > 100 µM (inactive) | > 100 µM (inactive) |  |  |  | 
2 | COC(=O)C(C(=O)Cc1ccccc1[N+](=O)[O-])C(=O)OC | > 100 µM (inactive) | > 100 µM (inactive) | > 100 µM (inactive) | > 100 µM (inactive) |  | > 100 µM (inactive) | > 100 µM (inactive) | > 100 µM (inactive) | > 100 µM (inactive) | > 100 µM (inactive) | > 100 µM (inactive) | > 100 µM (inactive) | > 100 µM (inactive) | > 100 µM (inactive) | > 100 µM (inactive) | > 100 µM (inactive) | > 100 µM (inactive) | > 100 µM (inactive) |  | 
3 | Cc1nc2nn[nH]n2c(=O)c1CCO | > 100 µM (inactive) | > 100 µM (inactive) | > 100 µM (inactive) | > 100 µM (inactive) | > 100 µM (inactive) | > 100 µM (inactive) | > 100 µM (inactive) | > 100 µM (inactive) | > 100 µM (inactive) | > 100 µM (inactive) | > 100 µM (inactive) | > 100 µM (inactive) | 26.6 µM (inactive) | > 100 µM (inactive) | > 100 µM (inactive) |  | > 100 µM (inactive) | > 100 µM (inactive) | > 100 µM (inactive) | > 100 µM (inactive)
4 | CCCCCCCCCCCC(=O)NCc1ccc(OC(=O)CCCCCCCCCCC)c(OC)c1 | 35.6 µM (inactive) | > 96.4 µM (inactive) | > 70 µM (inactive) | > 100 µM (inactive) | 33.5 µM (inactive) | 4.21 µM (inactive) | 31.9 µM (inactive) | 67.9 µM (inactive) | 32.7 µM (inactive) | > 100 µM (inactive) | > 63 µM (inactive) | > 100 µM (inactive) | > 100 µM (inactive) | > 100 µM (inactive) | > 100 µM (inactive) |  | 2.75 µM (inactive) | > 100 µM (inactive) | > 79.3 µM (inactive) | > 75.2 µM (inactive)
5 | CN(C)c1ccc(/C=C(\NC(=O)c2ccccc2)C(=O)NC(Cc2c[nH]c3ccccc23)C(=O)O)cc1 (stereo not drawn) | > 100 µM (inactive) | > 100 µM (inactive) | > 100 µM (inactive) | 34.4 µM (inactive) | > 100 µM (inactive) | > 100 µM (inactive) | > 100 µM (inactive) | > 100 µM (inactive) | > 100 µM (inactive) | 69 µM (inactive) | > 100 µM (inactive) | > 100 µM (inactive) | 0.226 µM (active) | > 100 µM (inactive) | > 100 µM (inactive) |  | > 100 µM (inactive) | > 100 µM (inactive) | > 100 µM (inactive) | > 100 µM (inactive)
6 | C=C1CC(CC(=O)C(C)CC2CC(=C)C(=O)O2)OC1=O (stereo not drawn) | 13.6 µM (inactive) | 15.8 µM (inactive) | > 100 µM (inactive) | > 100 µM (inactive) |  | 32.8 µM (inactive) | 17.7 µM (inactive) | 28 µM (inactive) | 15.8 µM (inactive) | 16.4 µM (inactive) | 33.3 µM (inactive) | 52.2 µM (inactive) | 61.4 µM (inactive) |  | 32.1 µM (inactive) | 14.4 µM (inactive) | 11.5 µM (inactive) | 18.7 µM (inactive) |  | 
7 | O=C1Sc2cc3ccccc3cc2C(=O)Sc2cc3ccccc3cc21 | > 100 µM (inactive) | 24.8 µM (inactive) | 19.5 µM (inactive) | 27.3 µM (inactive) | 6.68 µM (inactive) | 32.3 µM (inactive) | 21.1 µM (inactive) | 24.5 µM (inactive) | 27.8 µM (inactive) | 27.8 µM (inactive) | 50.8 µM (inactive) | 76.2 µM (inactive) | 38.8 µM (inactive) | 32.2 µM (inactive) | 41.6 µM (inactive) |  | 15.9 µM (inactive) | 17.7 µM (inactive) | 58.7 µM (inactive) | 30.8 µM (inactive)
8 | CCOC(=O)c1c2ccc(/C=C/C(=O)OC)ccc-2c(C(=O)OCC)c1N | > 100 µM (inactive) | > 100 µM (inactive) | > 100 µM (inactive) |  |  | > 100 µM (inactive) | > 100 µM (inactive) |  | > 100 µM (inactive) | > 100 µM (inactive) | > 100 µM (inactive) | > 100 µM (inactive) | > 100 µM (inactive) | > 100 µM (inactive) | > 100 µM (inactive) | > 100 µM (inactive) | > 100 µM (inactive) | > 100 µM (inactive) |  | 
9 | CC(CNC(N)=O)NC(N)=O (stereo not drawn) | > 100 µM (inactive) | > 100 µM (inactive) | > 100 µM (inactive) | > 100 µM (inactive) | > 100 µM (inactive) | > 100 µM (inactive) | > 100 µM (inactive) | > 100 µM (inactive) | > 100 µM (inactive) | > 100 µM (inactive) | > 100 µM (inactive) | > 100 µM (inactive) | > 100 µM (inactive) | > 100 µM (inactive) | > 100 µM (inactive) |  | > 100 µM (inactive) | > 100 µM (inactive) | > 100 µM (inactive) | > 100 µM (inactive)
10 | COc1cc(C2C=C(c3ccccc3)Oc3cc4c(cc32)OCO4)cc(OC)c1OC (stereo not drawn) | 0.33 µM (active) | 0.446 µM (active) | 1.19 µM (inactive) | 0.675 µM (active) | 0.555 µM (active) | 0.403 µM (active) | 0.324 µM (active) | 0.502 µM (active) | 0.35 µM (active) | 3.33 µM (inactive) | 0.502 µM (active) | 0.565 µM (active) | 2.4 µM (inactive) | 0.507 µM (active) | 0.436 µM (active) |  | 0.43 µM (active) | 0.0843 µM (active) | 0.361 µM (active) | 0.188 µM (active)
11 | O=C(Nc1cc(Cl)cc(Cl)c1)/C(Cc1nc2ccccc2nc1O)=N/NC(=O)c1ccncc1 | > 100 µM (inactive) | > 100 µM (inactive) | > 100 µM (inactive) | > 100 µM (inactive) | > 100 µM (inactive) | > 100 µM (inactive) | > 100 µM (inactive) | > 100 µM (inactive) | > 100 µM (inactive) | > 100 µM (inactive) | > 100 µM (inactive) | > 100 µM (inactive) |  | > 100 µM (inactive) | > 100 µM (inactive) | > 100 µM (inactive) | > 100 µM (inactive) |  |  | 
12 | CCn1c(=O)ccc2ccc(N(CCO)CCO)nc21 | > 100 µM (inactive) | > 100 µM (inactive) | > 100 µM (inactive) | > 100 µM (inactive) | > 100 µM (inactive) | > 100 µM (inactive) | > 100 µM (inactive) | > 100 µM (inactive) | > 100 µM (inactive) | > 100 µM (inactive) | > 100 µM (inactive) | > 100 µM (inactive) | > 100 µM (inactive) | > 100 µM (inactive) | > 100 µM (inactive) |  | 97.7 µM (inactive) | > 100 µM (inactive) | > 100 µM (inactive) | > 100 µM (inactive)
13 | CCOC(=O)c1nnsc1NC(=O)Nc1ccc(Cc2ccc(NC(=O)Nc3snnc3C(=O)OCC)cc2)cc1 | > 100 µM (inactive) | 76 µM (inactive) | > 100 µM (inactive) | 32.7 µM (inactive) | > 100 µM (inactive) | 28.2 µM (inactive) | > 100 µM (inactive) | 27.5 µM (inactive) | > 100 µM (inactive) | > 100 µM (inactive) | 29.6 µM (inactive) | 85.3 µM (inactive) | 88.5 µM (inactive) | 41 µM (inactive) | 25.6 µM (inactive) |  | > 100 µM (inactive) | 18.2 µM (inactive) | 32.8 µM (inactive) | 93.1 µM (inactive)
14 | O=c1[nH]c(=O)n(C2CC(O)C(CO)O2)cc1I (stereo not drawn) | > 100 µM (inactive) | > 100 µM (inactive) | > 100 µM (inactive) | > 100 µM (inactive) | > 43.8 µM (inactive) | > 100 µM (inactive) | > 100 µM (inactive) | > 100 µM (inactive) | > 70.3 µM (inactive) | > 100 µM (inactive) | > 100 µM (inactive) | > 100 µM (inactive) | > 100 µM (inactive) | 63.8 µM (inactive) | > 60.7 µM (inactive) |  | 75.7 µM (inactive) | > 100 µM (inactive) | > 100 µM (inactive) | > 100 µM (inactive)
15 | COc1cc2c(cn1)[nH]c1ccccc12 | > 100 µM (inactive) | 53 µM (inactive) | > 100 µM (inactive) | > 100 µM (inactive) | > 100 µM (inactive) | > 100 µM (inactive) | > 100 µM (inactive) | > 100 µM (inactive) | > 100 µM (inactive) | 85.1 µM (inactive) | 47.4 µM (inactive) | > 100 µM (inactive) | 55.8 µM (inactive) | 94.2 µM (inactive) | > 100 µM (inactive) | > 100 µM (inactive) | > 100 µM (inactive) |  |  | 
